Publication PMC9623849 (iScience, 2022)
Like-named read-outs stand apart in the source and are kept apart here.

How the values were obtained:
[1] = tested on: SARS-CoV-2 WK-521 infected VeroE6 cells; conditions: concentrations up to 100 μM (Figure S3)
in vitro = conditions: African green monkey, CC50, Table 1; VeroE6 cells, WST-8
SARS-CoV-2 M^pro/3CL^pro = SARS-CoV-2 M^pro/3CL^pro (Severe acute respiratory syndrome coronavirus 2, UniProt P0DTD1); experiment: biochemical; conditions: for IC50 fold change to 5h (in parentheses): Table 1
[2] = tested on: SARS-CoV-2 WK-521 (ancestral Wuhan strain); format: cell-based; conditions: Table 2; VeroE6 cells, RNA-qPCR
in vivo = conditions: female, Jcl:ICR (ICR), mouse, iv, 2 mg/kg, mice, i.v. 2.0 mg/kg, 240 min
[3] = mice

Structure (SMILES) | cytotoxicity in immunostaining experiments [1] | CC50 (in vitro) [nM] | IC50 (SARS-CoV-2 M^pro/3CL^pro) [nM] | IC50 fold change to 5h (in parentheses) (SARS-CoV-2 M^pro/3CL^pro) | EC75 [2] [nM] | EC99 [2] [µM] | half-life (in vivo) [min] | blood concentrations after administration ([3]; i.v. 2.0 mg/kg) | half-life, times longer than that of the parent compound ([3]; i.v. 2.0 mg/kg, relative to 5h (2)) | blood concentrations after administration ([3]; i.p. 20 mg/kg) | blood concentrations after administration ([3]; p.o.)
COc1ccc(F)c2[nH]c(C(=O)N[C@@H](CC(C)C)C(=O)N[C@@H](C[C@@H]3CCNC3=O)C(=O)c3nc4c(F)cccc4s3)cc12 [Compound 3] | no significant cytotoxicity at concentrations up to 100 μM | > 100000 | 37 ± 1 | 0.10 | 460 ± 20 | 0.97 ± 0.0020 | – | – | – | – | –
CC(C)(C)[C@H](NC(=O)C(F)(F)F)C(=O)N1C[C@H]2[C@@H]([C@H]1C(=O)N[C@H](C#N)C[C@@H]1CCNC1=O)C2(C)C [PF-07321332 (1), Nirmatrelvir, reference compound] | – | > 100000 | – | – | 4400 ± 210 | 9.7 ± 0.015 | < 23 | – | – | – | –
CC(C)C[C@H](NC(=O)c1cc2c(F)cc(F)cc2[nH]1)C(=O)N[C@@H](C[C@@H]1CCNC1=O)C(=O)c1nc2cc(F)ccc2s1 [Compound 54] | – | > 100000 | 540 ± 20 | 1.5 | – | – | – | – | – | – | –
CCC(CC)COC(=O)[C@H](C)N[P@](=O)(OC[C@H]1O[C@@](C#N)(c2ccc3c(N)ncnn23)[C@H](O)[C@@H]1O)Oc1ccccc1 [Remdesivir, reference compound] | – | > 100000 | – | – | – | – | – | – | – | – | –
CC(C)C[C@H](NC(=O)c1cc2c(F)ccc(F)c2[nH]1)C(=O)N[C@@H](C[C@@H]1CCNC1=O)C(=O)c1nc2cc(F)ccc2s1 [Compound 44] | – | > 100000 | 120 ± 10 | 0.34 | – | – | ~30 | – | – | – | –
COc1cccc2[nH]c(C(=O)N[C@@H](CC(C)C)C(=S)N[C@@H](C[C@@H]3CCNC3=O)C(=O)c3nc4ccccc4s3)cc12 [Compound 60] | – | > 100000 | 990 ± 60 | 2.8 | – | – | 50 to 60 | High blood concentrations of compound 60 were maintained after 60 min, and even 240 min had passed | 2–3 times | – | –
COc1ccc(F)c2[nH]c(C(=O)N[C@@H](CC(C)C)C(=S)N[C@@H](C[C@@H]3CCNC3=O)C(=O)c3nc4c(F)cccc4s3)cc12 [Compound 4] | no significant cytotoxicity at concentrations up to 100 μM | > 100000 | 370 ± 15 | 1.0 | 590 ± 30 | 4.1 ± 3.1 | – | higher blood concentrations of compound 4 were maintained compared with those of compound 3 after 60 min, and even 240 min | – | maintained remarkably higher blood concentrations than compound 3 | maintained remarkably higher blood concentrations for the first day than compound 3
